Measured values from patent US9394371B2, “Antibody-mediated disruption of quorum sensing in bacteria” (The Scripps Research Institute, priority 2007, dated 2016).

Tested on: S. aureus RN4850
Type: cell-based

## YSTCYFIM (SEQ ID NO: 123) (thiolactone cyclisation; listed as Staphylococcus aureus) [AIP-4, native S. aureus group IV autoinducing peptide, synthesized, reference compound]
  α-hemolysin expression after adding synthetic AIP-4 to AP4-24H11: fully restored expression of α-hemolysin
